In PMC6934184, “Selective DNA-PKcs inhibition extends the therapeutic index of localized radiotherapy and chemotherapy” (The Journal of Clinical Investigation, 2019):

Target: T1, PRKD1 (PKC mu) (Homo sapiens, UniProt Q15139)
T1 construct: purchased Thermo Fisher Scientific (Life Technologies) SelectScreen
Assay: SelectScreen Z'LYTE
Format: biochemical
Method in brief: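 NU5455 was profiled across the SelectScreen Broad panel of kinase activity and binding assays. Z'LYTE reactions such as CSF1R ran at apparent Km ATP, while the Adapta CAMK1 assay used ATP listed as 10. Values are given as percent.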

T1 sequence (Q15139 whole entry): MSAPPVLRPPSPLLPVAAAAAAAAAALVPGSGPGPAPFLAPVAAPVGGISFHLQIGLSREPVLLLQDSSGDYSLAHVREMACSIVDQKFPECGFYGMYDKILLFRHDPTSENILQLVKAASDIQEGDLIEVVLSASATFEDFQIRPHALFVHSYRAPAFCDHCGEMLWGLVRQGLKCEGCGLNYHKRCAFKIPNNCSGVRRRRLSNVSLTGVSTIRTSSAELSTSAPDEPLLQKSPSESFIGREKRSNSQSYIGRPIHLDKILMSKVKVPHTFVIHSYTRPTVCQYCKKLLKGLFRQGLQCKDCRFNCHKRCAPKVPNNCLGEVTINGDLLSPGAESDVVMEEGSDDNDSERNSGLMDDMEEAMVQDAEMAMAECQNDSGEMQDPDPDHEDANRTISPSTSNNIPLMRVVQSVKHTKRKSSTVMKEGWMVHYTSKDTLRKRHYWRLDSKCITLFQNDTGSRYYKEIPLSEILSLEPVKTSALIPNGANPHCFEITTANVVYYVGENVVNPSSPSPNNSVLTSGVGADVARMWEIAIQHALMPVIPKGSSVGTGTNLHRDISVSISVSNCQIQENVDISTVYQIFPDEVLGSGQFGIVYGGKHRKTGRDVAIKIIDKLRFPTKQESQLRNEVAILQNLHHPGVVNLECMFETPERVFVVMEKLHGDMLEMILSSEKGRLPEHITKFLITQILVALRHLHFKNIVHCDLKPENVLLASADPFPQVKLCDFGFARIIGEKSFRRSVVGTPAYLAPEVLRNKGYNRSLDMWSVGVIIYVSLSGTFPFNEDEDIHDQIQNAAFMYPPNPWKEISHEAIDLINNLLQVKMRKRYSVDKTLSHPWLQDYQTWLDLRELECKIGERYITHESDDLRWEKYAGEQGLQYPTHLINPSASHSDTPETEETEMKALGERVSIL

CN(C(=O)CN1CCOCC1)c1ccc2sc3c(-c4cccc5c(=O)cc(N6CC7CCC(C6)O7)oc45)cccc3c2c1 [NU5455]
inhibition at 1 µM: -8.5%
